Results on 21 molecules are retold here after PMC2248166, “Quantitative peptide binding motifs for 19 human and mouse MHC class I molecules derived using positional scanning combinatorial peptide libraries” (Immunome Research, 2008).

The target in this assay is HLA A*3001 (Homo sapiens, UniProt P04439, D140H/D185E/E176W/F33S/G80R/H175R/K168Q/R138E/R41S). Description: biochemical. The class given is binding.

pIC50: −log10 of the molar value. Where a SMILES comes first, the peptide text is derived from it.

HLA A*3001, sequence (P04439 25-365 limits assumed, stated change not applied): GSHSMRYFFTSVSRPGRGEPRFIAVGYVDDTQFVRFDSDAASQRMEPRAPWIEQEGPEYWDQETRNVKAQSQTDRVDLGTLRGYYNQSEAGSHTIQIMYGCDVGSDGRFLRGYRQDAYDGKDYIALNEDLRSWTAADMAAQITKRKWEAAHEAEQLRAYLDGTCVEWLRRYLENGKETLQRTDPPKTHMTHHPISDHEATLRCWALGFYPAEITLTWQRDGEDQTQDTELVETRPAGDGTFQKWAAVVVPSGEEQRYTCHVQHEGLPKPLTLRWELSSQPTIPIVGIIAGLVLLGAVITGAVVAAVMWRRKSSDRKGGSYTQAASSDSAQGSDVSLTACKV

One may read the pIC50 as −log10 of the IC50, conventionally taken in molar units. A higher pIC50 goes with a small IC50. Take `CSCC[C@H](NC(=O)[C@H](CO)NC(=O)[C@H](C)NC(=O)CNC(=O)[C@H](CCCCN)NC(=O)[C@H](C)NC(=O)[C@H](C)N)C(=O)N[C@H](C(=O)N[C@@H](CC(C)C)C(=O)O)[C@@H](C)O` [3102.0287] (H-AAKGASMTL-OH): the pIC50 was 9.00.
Take `C[C@@H](O)[C@H](NC(=O)[C@@H](N)CCCNC(=N)N)C(=O)N[C@@H](Cc1c[nH]cn1)C(=O)N[C@@H](Cc1ccccc1)C(=O)N[C@@H](CO)C(=O)N[C@@H](CCC(N)=O)C(=O)N1CCC[C@H]1C(=O)N[C@@H](CO)C(=O)NCC(=O)O` [3102.0048] (H-RTHFSQPSG-OH): the pIC50 is 7.82.
With `CC(C)C[C@H](NC(=O)[C@H](C)NC(=O)[C@@H](N)CO)C(=O)N[C@@H](Cc1ccc(O)cc1)C(=O)N[C@@H](CO)C(=O)N[C@@H](Cc1ccc(O)cc1)C(=O)N[C@@H](C)C(=O)N[C@@H](CO)C(=O)N[C@@H](C)C(=O)O` [3102.0177] (H-SALYSYASA-OH) the figure was 7.43.
As for `CC[C@H](C)[C@H](NC(=O)[C@H](CC(C)C)NC(=O)[C@H](C)NC(=O)[C@@H](NC(=O)[C@H](Cc1c[nH]cn1)NC(=O)[C@@H](NC(=O)[C@@H](N)CCCNC(=N)N)[C@@H](C)O)[C@@H](C)O)C(=O)N[C@@H](Cc1ccccc1)C(=O)N[C@@H](CC(C)C)C(=O)O` [3102.0094] (H-RTHTALIFL-OH), the pIC50 was 9.15.
In turn, `CC(C)C[C@H](NC(=O)[C@H](C)NC(=O)[C@H](CCC(=O)O)NC(=O)[C@H](CCCNC(=N)N)NC(=O)[C@@H](NC(=O)[C@@H](N)CCCCN)C(C)C)C(=O)N[C@@H](CC(=O)O)C(=O)NCC(=O)N[C@H](C(=O)O)C(C)C` [3102.0286] (H-KVREALDGV-OH) gave a pIC50 of 9.96.
Then `CSCC[C@H](NC(=O)[C@@H]1CCCN1C(=O)[C@H](CC(C)C)NC(=O)[C@H](CO)NC(=O)[C@H](CCC(=O)O)NC(=O)[C@H](CCCCN)NC(=O)[C@H](CC(N)=O)NC(=O)[C@@H](N)CCCCN)C(=O)N[C@@H](CC(C)C)C(=O)O` [3102.0195] (H-KNKESLPML-OH), with 7.74.
`CC(C)C[C@H](NC(=O)[C@H](CCC(=O)O)NC(=O)[C@H](CCCNC(=N)N)NC(=O)[C@H](CCCCN)NC(=O)[C@H](Cc1ccc(O)cc1)NC(=O)[C@H](Cc1ccccc1)NC(=O)[C@H](CCCCN)NC(=O)[C@@H](NC(=O)[C@@H](N)CCCCN)C(C)C)C(=O)O` [3102.0235] (H-KVKFYKREL-OH): the pIC50 was 7.38.
In turn, `CC(C)C[C@H](NC(=O)[C@H](CC(N)=O)NC(=O)[C@H](CC(C)C)NC(=O)[C@H](CCCNC(=N)N)NC(=O)[C@H](CCCNC(=N)N)NC(=O)[C@H](CO)NC(=O)[C@@H](N)CCCCN)C(=O)N[C@@H](Cc1ccccc1)C(=O)N[C@@H](CO)C(=O)O` [3102.0009] (H-KSRRLNLFS-OH) had a negative logarithm of the IC50 (pIC50) of 8.48.
`CSCC[C@H](NC(=O)[C@H](CC(C)C)NC(=O)[C@H](CCCNC(=N)N)NC(=O)[C@H](C)NC(=O)[C@@H](N)CC(N)=O)C(=O)N[C@@H](CCCNC(=N)N)C(=O)N[C@@H](C)C(=O)N[C@@H](CC(C)C)C(=O)N[C@@H](CCCCN)C(=O)O` [3102.0218] (H-NARLMRALK-OH): the pIC50 is 8.66.
Consider `CC[C@H](C)[C@H](NC(=O)[C@@H](NC(=O)[C@@H](N)CCSC)[C@@H](C)O)C(=O)N[C@@H](CCCNC(=N)N)C(=O)N[C@@H](CCC(=O)O)C(=O)N[C@@H](Cc1ccccc1)C(=O)N1CCC[C@H]1C(=O)N[C@@H](CCCNC(=N)N)C(=O)N[C@@H](CCCCN)C(=O)O` [3102.0225] (H-MTIREFPRK-OH), for which the pIC50 is 8.80.
With `CC[C@H](C)[C@H](NC(=O)[C@H](CCC(N)=O)NC(=O)[C@H](Cc1c[nH]cn1)NC(=O)[C@H](CO)NC(=O)[C@H](CCC(=O)O)NC(=O)[C@H](CCCCN)NC(=O)[C@@H](NC(=O)[C@@H](N)C(C)C)[C@@H](C)O)C(=O)N[C@@H](CCCCN)C(=O)O` [3102.0096] (H-VTKESHQIK-OH) the figure was 8.82; with `CC[C@H](C)[C@H](NC(=O)[C@H](CCSC)NC(=O)[C@H](CCCCN)NC(=O)[C@@H](NC(=O)[C@@H](N)CC(C)C)C(C)C)C(=O)N[C@@H](CC(N)=O)C(=O)N[C@@H](Cc1c[nH]cn1)C(=O)N[C@@H](CC(C)C)C(=O)N[C@@H](CCCCN)C(=O)O` [3102.0010] (H-LVKMINHLK-OH), 7.38.
On to `CC(C)[C@H](NC(=O)[C@H](CO)NC(=O)[C@H](CCCNC(=N)N)NC(=O)[C@H](Cc1ccccc1)NC(=O)[C@H](CCCNC(=N)N)NC(=O)[C@H](Cc1ccccc1)NC(=O)[C@@H](N)CCCNC(=N)N)C(=O)N[C@@H](Cc1ccc(O)cc1)C(=O)NCC(=O)O` [3102.0175] (H-RFRFRSVYG-OH), for which the pIC50 is 9.44.
`CC(C)C[C@H](NC(=O)[C@@H](N)CCCNC(=N)N)C(=O)N[C@@H](CCCCN)C(=O)N[C@@H](CC(=O)O)C(=O)N[C@@H](Cc1ccc(O)cc1)C(=O)N[C@@H](CCC(N)=O)C(=O)N[C@@H](Cc1c[nH]cn1)C(=O)N[C@@H](Cc1ccccc1)C(=O)N[C@H](C(=O)O)C(C)C` [3102.0208] (H-RLKDYQHFV-OH) showed a pIC50 of 9.41.
With `CC[C@H](C)[C@H](NC(=O)[C@H](Cc1ccc(O)cc1)NC(=O)[C@@H](NC(=O)[C@@H](N)CCCCN)C(C)C)C(=O)NCC(=O)N[C@@H](Cc1ccc(O)cc1)C(=O)N[C@@H](CS)C(=O)N[C@@H](CCSC)C(=O)N[C@@H](C)C(=O)O` [3102.0272] (H-KVYIGYCMA-OH) the figure was 8.59.
`CC(C)[C@H](NC(=O)[C@H](CO)NC(=O)[C@@H]1CCCN1C(=O)[C@H](CO)NC(=O)[C@H](C)NC(=O)[C@H](Cc1ccc(O)cc1)NC(=O)[C@H](Cc1ccccc1)NC(=O)CNC(=O)[C@@H](N)CCCCN)C(=O)O` [3102.0070] (H-KGFYASPSV-OH) showed a pIC50 of 8.57.
On to `CC[C@H](C)[C@H](NC(=O)CNC(=O)[C@H](CC(C)C)NC(=O)[C@@H]1CCCN1C(=O)CNC(=O)[C@H](CCCNC(=N)N)NC(=O)[C@@H](NC(=O)[C@@H](N)CCCNC(=N)N)[C@@H](C)O)C(=O)N[C@@H](CC(C)C)C(=O)O` [3102.0040] (H-RTRGPLGIL-OH), for which the pIC50 is 10.07.
`CC[C@H](C)[C@H](NC(=O)[C@@H](NC(=O)[C@H](CO)NC(=O)[C@@H](N)CCSC)C(C)C)C(=O)N[C@@H](CO)C(=O)N[C@@H](CC(N)=O)C(=O)N1CCC[C@H]1C(=O)N[C@@H](CO)C(=O)N[C@@H](CCCCN)C(=O)O` [3102.0255] (H-MSVISNPSK-OH) gave a pIC50 of 7.70.
As for `CC[C@H](C)[C@H](NC(=O)[C@H](C)NC(=O)[C@H](CO)NC(=O)[C@@H](NC(=O)[C@H](CO)NC(=O)[C@@H](NC(=O)[C@@H](N)CCCNC(=N)N)C(C)C)C(C)C)C(=O)N[C@@H](CC(C)C)C(=O)N[C@@H](CC(C)C)C(=O)O` [3102.0061] (H-RVSVSAILL-OH), the pIC50 is 7.82.
With `CC(C)C[C@H](NC(=O)[C@@H]1CCCN1C(=O)[C@H](Cc1c[nH]cn1)NC(=O)[C@@H](NC(=O)[C@H](CS)NC(=O)[C@H](CCCCN)NC(=O)[C@@H](NC(=O)[C@@H](N)CO)C(C)C)[C@@H](C)O)C(=O)N[C@H](C(=O)O)C(C)C` [3102.0215] (H-SVKCTHPLV-OH) the figure was 9.01.
Then `CC[C@H](C)[C@H](N)C(=O)N[C@H](C(=O)N[C@@H](CCCNC(=N)N)C(=O)N[C@@H](CC(=O)O)C(=O)N[C@@H](CO)C(=O)N[C@@H](CCSC)C(=O)N[C@@H](Cc1c[nH]c2ccccc12)C(=O)N[C@@H](Cc1ccc(O)cc1)C(=O)N[C@H](C(=O)O)[C@@H](C)CC)C(C)C` [3102.0125] (H-IVRDSMWYI-OH), with 7.70.
